According to ChEMBL document CHEMBL5291721, “A preclinical secondary pharmacology resource illuminates target-adverse drug reaction associations of marketed drugs” (Nat Commun, 2023):

Experiments:
Androgen receptor = target: T1, Androgen receptor (Homo sapiens, UniProt P10275)
T1 sequence (P10275 whole entry): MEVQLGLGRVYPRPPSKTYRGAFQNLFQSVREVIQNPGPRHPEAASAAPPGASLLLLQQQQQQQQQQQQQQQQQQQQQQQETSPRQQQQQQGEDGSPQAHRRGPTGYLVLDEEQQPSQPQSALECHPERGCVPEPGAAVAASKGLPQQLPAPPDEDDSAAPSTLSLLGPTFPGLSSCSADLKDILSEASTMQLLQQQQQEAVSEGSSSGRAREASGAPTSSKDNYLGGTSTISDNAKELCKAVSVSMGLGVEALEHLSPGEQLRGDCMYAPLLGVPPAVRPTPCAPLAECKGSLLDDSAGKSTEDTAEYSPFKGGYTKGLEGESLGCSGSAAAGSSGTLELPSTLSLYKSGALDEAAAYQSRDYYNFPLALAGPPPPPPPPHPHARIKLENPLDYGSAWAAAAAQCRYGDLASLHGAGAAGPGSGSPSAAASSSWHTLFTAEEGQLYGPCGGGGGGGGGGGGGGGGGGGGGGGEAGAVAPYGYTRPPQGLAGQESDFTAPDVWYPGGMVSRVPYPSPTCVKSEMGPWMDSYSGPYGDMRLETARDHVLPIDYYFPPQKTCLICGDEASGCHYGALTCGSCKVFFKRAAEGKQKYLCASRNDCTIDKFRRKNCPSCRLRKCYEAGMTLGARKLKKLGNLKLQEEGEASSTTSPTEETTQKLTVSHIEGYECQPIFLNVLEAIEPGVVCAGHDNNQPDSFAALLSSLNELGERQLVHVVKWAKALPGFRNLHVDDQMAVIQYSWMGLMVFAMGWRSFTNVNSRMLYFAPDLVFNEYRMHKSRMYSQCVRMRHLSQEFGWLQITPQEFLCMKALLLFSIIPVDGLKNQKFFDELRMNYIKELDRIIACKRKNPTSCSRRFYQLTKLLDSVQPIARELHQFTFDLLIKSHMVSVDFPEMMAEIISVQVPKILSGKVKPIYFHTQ

[1] = target: Gamma-aminobutyric acid receptor subunit alpha-1/alpha-2/beta-2/gamma-2 (Homo sapiens, UniProt P14867+P18507+P47869+P47870); assay type: protein-complex assay
Chain of Gamma-aminobutyric acid receptor subunit alpha-1/alpha-2/beta-2/gamma-2 (P14867 whole entry): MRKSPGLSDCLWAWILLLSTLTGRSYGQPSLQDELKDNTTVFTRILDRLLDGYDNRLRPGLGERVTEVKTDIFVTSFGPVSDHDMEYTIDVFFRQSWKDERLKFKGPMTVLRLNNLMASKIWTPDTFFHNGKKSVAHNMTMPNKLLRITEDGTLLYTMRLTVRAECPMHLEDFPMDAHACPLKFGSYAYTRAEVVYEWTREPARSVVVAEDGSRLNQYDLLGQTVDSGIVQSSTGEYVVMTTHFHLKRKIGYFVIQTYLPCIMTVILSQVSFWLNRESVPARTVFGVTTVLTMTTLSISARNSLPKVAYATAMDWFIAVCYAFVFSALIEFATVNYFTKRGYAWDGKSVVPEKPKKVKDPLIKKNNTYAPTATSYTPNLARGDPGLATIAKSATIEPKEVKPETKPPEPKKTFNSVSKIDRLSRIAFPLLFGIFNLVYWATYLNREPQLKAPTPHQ
Chain of Gamma-aminobutyric acid receptor subunit alpha-1/alpha-2/beta-2/gamma-2 (P47870 whole entry): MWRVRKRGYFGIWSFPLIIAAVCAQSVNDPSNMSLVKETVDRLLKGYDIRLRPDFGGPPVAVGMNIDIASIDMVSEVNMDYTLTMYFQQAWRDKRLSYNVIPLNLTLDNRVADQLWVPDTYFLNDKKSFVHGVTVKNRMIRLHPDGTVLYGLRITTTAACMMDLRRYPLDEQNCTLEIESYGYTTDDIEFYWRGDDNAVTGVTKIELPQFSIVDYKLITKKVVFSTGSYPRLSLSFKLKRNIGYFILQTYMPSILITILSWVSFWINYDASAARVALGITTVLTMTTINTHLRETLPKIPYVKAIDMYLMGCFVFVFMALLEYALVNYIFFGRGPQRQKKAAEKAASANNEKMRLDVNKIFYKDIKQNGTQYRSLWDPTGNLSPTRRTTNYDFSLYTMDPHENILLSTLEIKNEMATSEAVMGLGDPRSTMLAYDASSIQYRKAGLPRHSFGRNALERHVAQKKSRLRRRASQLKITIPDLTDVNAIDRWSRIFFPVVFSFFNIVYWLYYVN
Chain of Gamma-aminobutyric acid receptor subunit alpha-1/alpha-2/beta-2/gamma-2 (P18507 whole entry): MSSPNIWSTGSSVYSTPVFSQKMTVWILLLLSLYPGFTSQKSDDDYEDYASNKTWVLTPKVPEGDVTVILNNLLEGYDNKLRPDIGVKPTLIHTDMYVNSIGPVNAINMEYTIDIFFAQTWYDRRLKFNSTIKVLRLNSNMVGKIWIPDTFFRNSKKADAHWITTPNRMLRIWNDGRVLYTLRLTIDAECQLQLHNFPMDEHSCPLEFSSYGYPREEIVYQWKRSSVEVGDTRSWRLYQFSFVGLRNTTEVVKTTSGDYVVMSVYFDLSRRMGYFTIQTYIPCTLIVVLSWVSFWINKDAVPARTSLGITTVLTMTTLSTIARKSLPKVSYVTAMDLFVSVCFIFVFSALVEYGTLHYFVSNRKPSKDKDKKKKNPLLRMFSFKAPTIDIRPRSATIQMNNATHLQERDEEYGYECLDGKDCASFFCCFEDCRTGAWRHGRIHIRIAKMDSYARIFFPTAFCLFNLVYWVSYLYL
Chain of Gamma-aminobutyric acid receptor subunit alpha-1/alpha-2/beta-2/gamma-2 (P47869 whole entry): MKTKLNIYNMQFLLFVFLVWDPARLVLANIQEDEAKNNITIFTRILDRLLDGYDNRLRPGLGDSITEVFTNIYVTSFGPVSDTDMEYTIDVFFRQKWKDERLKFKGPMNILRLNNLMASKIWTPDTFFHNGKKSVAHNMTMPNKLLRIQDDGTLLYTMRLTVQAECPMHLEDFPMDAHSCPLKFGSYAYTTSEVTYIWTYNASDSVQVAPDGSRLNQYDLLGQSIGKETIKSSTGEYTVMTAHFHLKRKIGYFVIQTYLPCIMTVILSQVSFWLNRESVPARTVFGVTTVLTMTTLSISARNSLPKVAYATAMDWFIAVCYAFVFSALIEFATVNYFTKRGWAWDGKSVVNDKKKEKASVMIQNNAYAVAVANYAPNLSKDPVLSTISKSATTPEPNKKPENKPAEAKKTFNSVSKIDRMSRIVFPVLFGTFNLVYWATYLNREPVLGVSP

Adenosine receptor A1 = target: T2, Adenosine receptor A1 (Homo sapiens, UniProt P30542)
T2 sequence (P30542 whole entry): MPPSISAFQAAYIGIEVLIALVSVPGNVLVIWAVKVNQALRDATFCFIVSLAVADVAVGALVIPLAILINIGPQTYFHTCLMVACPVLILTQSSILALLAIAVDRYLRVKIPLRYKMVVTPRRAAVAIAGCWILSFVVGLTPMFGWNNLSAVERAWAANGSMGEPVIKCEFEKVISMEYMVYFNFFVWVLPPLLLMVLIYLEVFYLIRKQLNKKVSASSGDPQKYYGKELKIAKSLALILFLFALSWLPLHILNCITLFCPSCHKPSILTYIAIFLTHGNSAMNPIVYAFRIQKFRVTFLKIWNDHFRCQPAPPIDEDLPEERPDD

[2] = target: Beta-2 adrenergic receptor (Homo sapiens, UniProt P07550); assay type: functional, cell-based
Chain of Beta-2 adrenergic receptor (P07550 whole entry): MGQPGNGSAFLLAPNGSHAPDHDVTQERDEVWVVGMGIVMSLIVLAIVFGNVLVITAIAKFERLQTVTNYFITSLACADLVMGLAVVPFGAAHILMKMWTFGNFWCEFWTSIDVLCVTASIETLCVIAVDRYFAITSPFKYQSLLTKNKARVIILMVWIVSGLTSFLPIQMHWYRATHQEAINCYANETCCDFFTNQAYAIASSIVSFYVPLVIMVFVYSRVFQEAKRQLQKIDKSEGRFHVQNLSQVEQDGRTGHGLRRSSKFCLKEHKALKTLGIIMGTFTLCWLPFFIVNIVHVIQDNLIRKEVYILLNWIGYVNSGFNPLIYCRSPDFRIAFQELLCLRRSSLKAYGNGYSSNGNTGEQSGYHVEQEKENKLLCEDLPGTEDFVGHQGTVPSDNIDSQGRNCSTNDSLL

[3] = target: T3, Muscarinic acetylcholine receptor M1 (Homo sapiens, UniProt P11229); assay type: functional
T3 sequence (P11229 whole entry): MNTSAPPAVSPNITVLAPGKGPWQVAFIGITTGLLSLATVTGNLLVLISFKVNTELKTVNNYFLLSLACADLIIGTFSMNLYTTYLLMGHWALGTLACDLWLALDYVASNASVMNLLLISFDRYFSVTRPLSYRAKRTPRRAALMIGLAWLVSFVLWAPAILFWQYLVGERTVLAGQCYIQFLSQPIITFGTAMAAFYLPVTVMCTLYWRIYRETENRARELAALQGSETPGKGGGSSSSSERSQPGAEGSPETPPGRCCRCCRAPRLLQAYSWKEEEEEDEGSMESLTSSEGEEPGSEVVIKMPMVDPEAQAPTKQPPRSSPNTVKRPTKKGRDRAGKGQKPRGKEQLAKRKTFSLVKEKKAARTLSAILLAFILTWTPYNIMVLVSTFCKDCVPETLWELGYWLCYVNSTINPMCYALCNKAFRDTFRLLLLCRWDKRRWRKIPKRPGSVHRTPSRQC

[4] = target: Muscarinic acetylcholine receptor M3 (Homo sapiens, UniProt P20309)
Chain of Muscarinic acetylcholine receptor M3 (P20309 whole entry): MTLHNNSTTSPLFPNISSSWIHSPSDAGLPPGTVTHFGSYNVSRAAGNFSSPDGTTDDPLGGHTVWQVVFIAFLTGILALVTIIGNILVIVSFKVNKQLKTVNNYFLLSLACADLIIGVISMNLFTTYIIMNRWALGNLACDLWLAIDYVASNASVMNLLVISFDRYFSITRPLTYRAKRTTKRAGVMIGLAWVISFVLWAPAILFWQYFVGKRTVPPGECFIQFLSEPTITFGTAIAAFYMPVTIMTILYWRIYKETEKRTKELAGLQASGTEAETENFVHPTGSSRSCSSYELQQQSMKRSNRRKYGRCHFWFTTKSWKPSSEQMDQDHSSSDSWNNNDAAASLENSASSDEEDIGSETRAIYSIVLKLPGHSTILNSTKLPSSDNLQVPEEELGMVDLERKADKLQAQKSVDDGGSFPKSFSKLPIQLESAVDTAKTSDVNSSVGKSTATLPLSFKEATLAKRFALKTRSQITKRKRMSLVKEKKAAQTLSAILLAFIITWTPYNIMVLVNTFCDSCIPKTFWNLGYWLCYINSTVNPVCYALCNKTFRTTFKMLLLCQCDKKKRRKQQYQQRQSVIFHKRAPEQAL

Endothelin-1 receptor = target: T4, Endothelin-1 receptor (Homo sapiens, UniProt P25101)
T4 sequence (P25101 whole entry): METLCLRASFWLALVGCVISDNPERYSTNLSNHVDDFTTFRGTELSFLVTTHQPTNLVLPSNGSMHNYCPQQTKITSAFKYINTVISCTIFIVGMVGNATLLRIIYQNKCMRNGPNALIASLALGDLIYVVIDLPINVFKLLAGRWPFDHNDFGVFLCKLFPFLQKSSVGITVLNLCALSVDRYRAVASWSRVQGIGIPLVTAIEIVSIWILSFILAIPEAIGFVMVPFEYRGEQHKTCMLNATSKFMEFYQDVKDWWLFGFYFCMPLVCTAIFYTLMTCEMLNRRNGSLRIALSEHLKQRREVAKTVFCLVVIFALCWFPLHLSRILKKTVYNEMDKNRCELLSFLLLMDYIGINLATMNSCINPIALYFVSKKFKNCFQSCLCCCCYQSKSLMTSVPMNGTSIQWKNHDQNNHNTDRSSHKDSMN

Histamine H1 receptor = Histamine H1 receptor (Homo sapiens, UniProt P35367)
Chain of Histamine H1 receptor (P35367 whole entry): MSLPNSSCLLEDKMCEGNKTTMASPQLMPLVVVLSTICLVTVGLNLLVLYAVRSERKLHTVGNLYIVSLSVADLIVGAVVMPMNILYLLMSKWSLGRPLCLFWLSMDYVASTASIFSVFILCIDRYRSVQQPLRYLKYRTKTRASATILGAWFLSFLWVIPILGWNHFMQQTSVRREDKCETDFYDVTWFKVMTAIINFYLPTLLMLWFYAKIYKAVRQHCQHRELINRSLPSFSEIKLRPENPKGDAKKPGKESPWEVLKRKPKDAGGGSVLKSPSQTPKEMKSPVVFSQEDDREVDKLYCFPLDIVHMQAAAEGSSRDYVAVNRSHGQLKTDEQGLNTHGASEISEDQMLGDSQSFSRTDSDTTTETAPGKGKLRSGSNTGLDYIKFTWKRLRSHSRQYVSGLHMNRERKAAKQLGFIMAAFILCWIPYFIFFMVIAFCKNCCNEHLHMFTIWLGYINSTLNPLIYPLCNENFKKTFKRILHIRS

[5] = target: T5, 5-hydroxytryptamine receptor 2A (Homo sapiens, UniProt P28223); assay type: functional, cell-based
T5 sequence (P28223 whole entry): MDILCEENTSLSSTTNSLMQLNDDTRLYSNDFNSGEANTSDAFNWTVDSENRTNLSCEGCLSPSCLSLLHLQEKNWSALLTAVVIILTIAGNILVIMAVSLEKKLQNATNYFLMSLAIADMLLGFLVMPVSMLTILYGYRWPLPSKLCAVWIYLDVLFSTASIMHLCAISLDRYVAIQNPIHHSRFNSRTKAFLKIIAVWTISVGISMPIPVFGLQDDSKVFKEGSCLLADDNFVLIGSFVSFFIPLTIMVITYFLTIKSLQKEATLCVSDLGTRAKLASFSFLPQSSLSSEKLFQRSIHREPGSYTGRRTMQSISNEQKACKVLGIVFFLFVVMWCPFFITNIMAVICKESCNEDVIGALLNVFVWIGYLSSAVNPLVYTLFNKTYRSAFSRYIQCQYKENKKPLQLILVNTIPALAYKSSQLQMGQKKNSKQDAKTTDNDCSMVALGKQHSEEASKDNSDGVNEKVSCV

[6] = target: T5, 5-hydroxytryptamine receptor 2A; assay type: functional, cell-based; remark: listed apart in the source
Also: assay procedure not described here.

Compound: Cc1oc(=O)oc1COC(=O)[C@@H]1N2C(=O)[C@@H](NC(=O)[C@H](N)c3ccccc3)[C@H]2SC1(C)C [LENAMPICILLIN]
- AC50 (Androgen receptor): > 30 µM

Compound: c1ccc2c(SC3=NCCN3)c[nH]c2c1 [TINAZOLINE]
- AC50 (Androgen receptor): > 30 µM
- AC50 [1]: > 30 µM

Compound: CC(OCCN1CCCCCC1)(c1ccccc1)c1ccc(Cl)cc1 (stereo not drawn) [SETASTINE]
- AC50 (Androgen receptor): > 30 µM
- AC50 [1]: > 30 µM

Compound: COC(=O)[C@H]1[C@H]2C[C@@H]3c4[nH]c5cc(OC)ccc5c4CCN3C[C@H]2C[C@@H](OC(=O)c2cc(OC)c(OC)c(OC)c2)[C@@H]1OC [RESERPINE]
- AC50 [1]: > 10 µM

Compound: COc1cc(C)c2c(Oc3cccc(C(F)(F)F)c3)c(OC)cc(NC(C)CCCN)c2n1 (stereo not drawn) [TAFENOQUINE]
- AC50 (Adenosine receptor A1): > 30 µM
- AC50 (Androgen receptor): > 30 µM

Compound: OC[C@H]1O[C@@H](n2cnc3c2NC=NC[C@H]3O)C[C@@H]1O [PENTOSTATIN]
- AC50 [2]: > 30 µM
- AC50 [3]: > 30 µM
- AC50 [4]: > 30 µM
- AC50 (Endothelin-1 receptor): > 30 µM
- AC50 (Histamine H1 receptor): > 30 µM
- AC50 [5]: > 30 µM
- AC50 [6]: > 30 µM

Compound: NC(=O)[C@@H]1CC[C@@H]2CN1C(=O)N2OS(=O)(=O)O [AVIBACTAM]
- AC50 (Androgen receptor): > 30 µM
- AC50 [1]: > 30 µM

Compound: O=C(CCC/C=C\C[C@@H]1[C@@H](CC[C@@H](O)CCc2ccccc2)[C@H](O)C[C@@H]1O)OCCCCO[N+](=O)[O-] [LATANOPROSTENE BUNOD]
- AC50 (Adenosine receptor A1): > 30 µM
- AC50 (Androgen receptor): > 30 µM

Compound: NC[C@H]1CC[C@H](C(=O)Oc2ccc(CCC(=O)O)cc2)CC1 [CETRAXATE]
- AC50 (Adenosine receptor A1): > 30 µM
- AC50 [2]: > 30 µM

Compound: COC(=O)C1=C(C)NC(C)=C(C(=O)OCCN2CCN(C(c3ccccc3)c3ccccc3)CC2)C1c1cccc([N+](=O)[O-])c1 (stereo not drawn) [MANIDIPINE 6300]
- AC50 [2]: > 30 µM
- AC50 [3]: > 30 µM
- AC50 [4]: > 30 µM
- AC50 (Endothelin-1 receptor): > 30 µM
- AC50 (Histamine H1 receptor): 3.7 µM
- AC50 [5]: > 30 µM
- AC50 [6]: > 30 µM

Compound: CN(C)C/C=C/C(=O)Nc1cc2c(Nc3ccc(F)c(Cl)c3)ncnc2cc1O[C@H]1CCOC1 [AFATINIB]
- AC50 [2]: > 30 µM
- AC50 [3]: > 30 µM
- AC50 [4]: > 30 µM
- AC50 (Endothelin-1 receptor): > 30 µM
- AC50 (Histamine H1 receptor): > 30 µM
- AC50 [5]: > 30 µM
- AC50 [6]: > 30 µM

Compound: CC(=O)OC[C@H]1O[C@@H](n2ncc(=O)[nH]c2=O)[C@H](OC(C)=O)[C@@H]1OC(C)=O [AZARIBINE]
- AC50 (Androgen receptor): > 30 µM

Compound: CC(O)(CS(=O)(=O)c1ccc(F)cc1)C(=O)Nc1ccc(C#N)c(C(F)(F)F)c1 (stereo not drawn) [BICALUTAMIDE]
- AC50 (Adenosine receptor A1): > 30 µM
- AC50 [2]: > 30 µM
- AC50 (Endothelin-1 receptor): > 30 µM

Compound: COc1cccc(C(=O)CCN[C@@H](C)[C@H](O)c2ccccc2)c1 [OXYFEDRINE]
- AC50 (Androgen receptor): > 30 µM
- AC50 [1]: > 30 µM

Compound: CC(Cc1cccc(C(F)(F)F)c1)NCCOC(=O)c1ccccc1 (stereo not drawn) [BENFLUOREX]
- AC50 [2]: > 30 µM
- AC50 [3]: > 30 µM
- AC50 [4]: 27 µM
- AC50 (Endothelin-1 receptor): > 30 µM
- AC50 (Histamine H1 receptor): 13.5 µM
- AC50 [5]: > 30 µM
- AC50 [6]: 6.86 µM

Compound: CCCSc1nc(N[C@@H]2C[C@H]2c2ccc(F)c(F)c2)c2nnn([C@@H]3C[C@H](OCCO)[C@@H](O)[C@H]3O)c2n1 [TICAGRELOR]
- AC50 (Androgen receptor): > 30 µM

Compound: C[C@H](N[C@@H](CCc1ccccc1)C(=O)O)C(=O)N1Cc2ccccc2C[C@H]1C(=O)O
- AC50 (Androgen receptor): > 30 µM

Compound: N#Cc1ccc(Oc2ccc3c(c2)COB3O)cc1 [CRISABOROLE]
- AC50 (Androgen receptor): > 30 µM
- AC50 [1]: > 30 µM

Compound: COc1ccc2c(C(=S)N(C)CC(=O)O)cccc2c1C(F)(F)F [TOLRESTAT]
- AC50 (Adenosine receptor A1): > 30 µM
